This is an account of results in patent US7238525B2, “Strategy for leukemia therapy” (The Regents of the University of California, priority 2000, dated 2007).

SMILES strings stand for the structures.

One data set concerns TonB cells. Particulars: 48 hours treatment, with IL-3.
Data set [1] relates to K562 cells. Kind of data set: Cell survival assay, K562 cells. Format: cell-based. Particulars: 72 hours treatment, then drug removal. As for the experimental part: […]. […] […].
After 48 h (TonB, TonB210) or 72 h (K562), live cells were counted with the Trypan blue exclusion assay. Cells were then washed extensively with PBS and placed in growth media. Trypan blue cell counts were repeated every 48 h and followed by feeding with fresh media. Cell counts were stopped when the number of viable cells was higher than the number of cells originally plated.

Another data set concerns Bcr-Abl-KD. Kind of data set: Nuclear localization by immunofluorescence in transfected Abl−/− fibroblasts (Bcr-Abl-KD). The format is cell-based. Conditions: LMB alone.
For data set [2] the following is noted: human, in vivo; cited from earlier work.
In data set [3] the test system is K562 cells. Kind of data set: Tyrosine-phosphorylated proteins in total cell lysates, K562. Conditions: at the end of drug treatments.
Procedure: The tyrosine-phosphorylated proteins in total cell lysates were examined at the end of drug treatments and then before their precipitous death.
Transfection and Immunoblotting. […] Immunoblots were performed using 1 μg/ml 4G10 monoclonal antibody against phosphotyrosine (Upstate Biotechnology, Waltham, Mass.), or 1 μg/ml monoclonal antibody against Abl (8E9) (Pharmingen, San Diego, Calif.).
For data set [4] the following is noted: human, in vivo; cited from earlier work. This is another data set of the same source.
In another data set the test system is human leukemic cells. Conditions: in vivo STI571 treatment; cited from earlier work.
Another data set concerns untransfected cells. Put plainly: TUNEL assay, untransfected cells. Format: cell-based. Particulars: STI571 alone, BCR-Abl-NES experiment. The source says: It is known that activation of the nuclear Abl tyrosine kinase by DNA damage can contribute to the induction of apoptosis (Gong et al., 1999; Wang, 2000). Similarly, when translocated into the nucleus, Bcr-Abl kinase can activate apoptosis. […]. […] However, removal of the inhibitor while maintaining the Bcr-Abl in the nucleus strongly stimulated apoptosis. […]. With this protocol, between 70–80% of the Bcr-Abl expressing cells were positive for TUNEL staining, whereas the apoptosis rate remained at the 10% level with untransfected cells (Table 2). By expressing Bcr-Abl-KD and treating cells with LMB alone, it was confirmed that an active nuclear Bcr-Abl kinase was required to induce apoptosis.
Cell Death Assays. […] […].

`CCC(=C/[C@H](C)C/C=C/C(C)=C/[C@@H](C)C(=O)[C@@H](C)[C@H](O)[C@@H](C)C/C(C)=C/C(=O)O)/C=C/[C@@H]1OC(=O)C=C[C@@H]1C` [LMB, leptomycin B]: the viable cell numbers entry in the data set on TonB cells is “caused a reduction in cell numbers”; in the data set on K562 cells [1] it was “initial decline in cell number”. Moreover, in the data set with Bcr-Abl-KD, the “nuclear fraction of Bcr-Abl-KD” value is 25–35%. Besides, in data set [2], the “toxicity observed in a phase I clinical trial” value is on record as “neuronal toxicity”.
As for `Cc1ccc(NC(=O)c2ccc(CN3CCN(C)CC3)cc2)cc1Nc1nccc(-c2cccnc2)n1` [STI571, 4-[(4-methyl-piperazinyl)methyl]-N-[4-methyl-3-[[4-(3-pyrodnyl)-2-pyrimidinyl]amin]phenyl]benzamide methanesul-fonate], the “overall levels of tyrosine-phosphorylated proteins” value in the data set on K562 cells [3] was “decreased”. The maximum tolerated dose entry in data set [4] is given as “No maximum tolerated dose has been identified”. For the same compound, in the data set on human leukemic cells, the tumors eradicated is given as 70–100%. The viable cell numbers result in the data set with K562 cells [1] was “initial death”. In the data set with untransfected cells, this compound displayed a TUNEL-positive untransfected cells of 3%.
